Read-outs that look alike come from different tables or passages of the source. Marks after values point to notes of the source that are not given here.
Tests used:
[1] = test system: Aurora A; parameters: method as in PMID 22935731; settings: 1 mM ATP; read-out: Biochemical IC50 (95% confidence limits); cited from earlier work
[2] = test system: PDGFR-α; parameters: method as in PMID 22935731; settings: PDGFR-α cellular phosphorylation, ligand stimulated; read-out: Cellular PD marker IC50 (95% confidence limits); cited from earlier work
[3] = test system: c-KIT; parameters: method as in PMID 22935731; settings: 1 mM ATP; read-out: Biochemical IC50 (95% confidence limits); cited from earlier work
[4] = test system: FLT-3; parameters: method as in PMID 22935731; settings: 1 mM ATP; read-out: Biochemical IC50 (95% confidence limits); cited from earlier work
[5] = Plasma pharmacokinetics, Arm III (i.v. infusion), phase 1 trial; type: in vivo, human; settings: for half-life: read-out: t1/2 (harmonic mean) (converted)
Procedure: Pharmacokinetics of ilorasertib were evaluated in the dose-escalation cohort on blood samples that were collected on cycle 1 days 1 and 15. Parameters determined: Cmax, time to Cmax (Tmax), terminal phase elimination half-life (t1/2), clearance, apparent oral clearance (CL/F), and area under the plasma concentration-time curve from time 0 to time of last measurable concentration (AUCt) and from time 0 to infinity (AUC∞). For Arm I, blood samples were collected prior to dosing and at 0.5, 1, 2, 3, 4, 6, 8, 10 or 12, and 24 h after dosing on cycle 1 days 1 and 15; of note, for institutions not able to collect the 10- or 12-h post-dose sample, the 24-h sample was replaced with 22-h and 28-h post-dose samples. In Arm II, for the first dose, blood samples were collected pre-dose and at 1, 2, 3, and 4 h post-dose on cycle 1 days 1 and 15; for the second dose, samples were collected pre-dose and at 1, 2, 3, 4, 18, and 24 h after second dose on cycle 1 days 1 and 15. In Arm III, blood samples were collected prior to infusion, at 1 h 55 min (just before end of infusion), and at 0.5, 1, 2, 4, 6, 8, 10, and 24 h after end of infusion on cycle 1 days 1 and 15; here also, for institutions not able to collect the 8-h or 10-h after-end-of-infusion samples, the 24-h sample was replaced with 22-h and 28-h post-dose samples. The liquid chromatography (LC)-mass spectrometry (MS)/MS method was developed and validated in the Bioanalysis Department of AbbVie. Fifty microliter of human plasma (K2EDTA as anticoagulant) was fortified with 300 μL of deuterium-stable labelled internal standard and mixed well. A HybridSPE precipitation plate (50 mg/96 wells, Supelco Analytical, Munich, Germany) was used to directly load and elute (under slight vacuum) the fortified samples into a clean collection plate. Samples were dried before reconstitution with 100 μL of 20/80 (v/v) acetonitrile/water, and injected for LC-MS/MS analysis. A Halo C8 (Wilmington, DE, USA; 2.7 μm, 2.1 × 30 mm) was used on an Agilent 1290 Infinity UPLC pump (Agilent Technologies, Santa Clara, CA) to carry out the separation. An isocratic condition with 25/75/0.1 (v/v/v) acetonitrile/water/98% formic acid was used as the mobile phase. The flow rate was set to be 0.6 mL/min. An MPS 3 C ([…] Ruhr, Germany) autosampler was used to introduce samples onto the UPLC system. An API 4000 mass spectrometer (Applied Biosystems, Foster City, CA) was used in the multiple reactions monitoring mode for the detection and quantitation of analyte. Descriptive statistics were used for demographic variables. The numbers and percentages of patients with treatment-emergent AEs (TEAEs) were tabulated using the Medical Dictionary for Regulatory Activities version 16.0 system organ class and preferred term, and further classified according to CTCAE version 4.0 criteria. The safety data set included all patients who received one or more doses of ilorasertib. The pharmacokinetic data set included all patients who received one or more doses of ilorasertib and had one or more pharmacokinetic samples. Values for pharmacokinetic parameters were determined using non-compartmental methods, with data analysed separately for each arm. A repeated measures analysis was performed for Tmax and dose-normalised Cmax, AUCt, and AUC∞. The model included random effects for patient and fixed effects for dose level, day, and the interaction of dose level and day. To assess effects of exposure on pharmacodynamic biomarkers, Cmax was employed as the directly measured marker of exposure for the rapid changes in DBP and PlGF pre-steady-state, while AUC∞ reflected exposure variability at the time of post-multiple-dose skin biopsy. Descriptive statistics were used to summarise ECOG performance status. The efficacy data set included all patients who received one or more doses of ilorasertib.

[6] = test system: FLT-3; parameters: method as in PMID 22935731; settings: FLT-3 constitutively phosphorylated in SEM cells, 60 min exposure; read-out: Cellular PD marker IC50 (95% confidence limits); cited from earlier work
[7] = test system: CSF-1R; parameters: method as in PMID 22935731; settings: CSF-1R cellular phosphorylation, ligand stimulated; read-out: Cellular PD marker IC50 (95% confidence limits); cited from earlier work
[8] = Arm III i.v. infusion 8 mg, day 1, N=4
[9] = Arm III i.v. infusion 8 mg, day 15, N=4
[10] = Arm III i.v. infusion 16 mg, day 1, N=1
[11] = Arm III i.v. infusion 16 mg, day 15, N=1
[12] = Arm III i.v. infusion 32 mg, day 1, N=2, mean (individual)
[13] = Arm III i.v. infusion 32 mg, day 15, N=2, mean (individual)
[14] = Arm III i.v. infusion all doses, day 1, N=7
[15] = Arm III i.v. infusion all doses, day 15, N=7
[16] = human, plasma, iv, 8 mg, Arm III i.v. infusion 8 mg, day 1, N=3
[17] = human, plasma, iv, 8 mg, Arm III i.v. infusion 8 mg, day 15, N=3
[18] = human, plasma, iv, 16 mg, Arm III i.v. infusion 16 mg, day 1, N=1
[19] = human, plasma, iv, 16 mg, Arm III i.v. infusion 16 mg, day 15, N=1
[20] = human, plasma, iv, 32 mg, Arm III i.v. infusion 32 mg, day 1, N=2, mean (individual)
[21] = human, plasma, iv, 32 mg, Arm III i.v. infusion 32 mg, day 15, N=2, mean (individual)
[22] = human, plasma, iv, Arm III i.v. infusion all doses, day 1, N=6
[23] = human, plasma, iv, Arm III i.v. infusion all doses, day 15, N=6

**Q.** For `Nc1ncc(-c2cnn(CCO)c2)c2scc(-c3ccc(NC(=O)Nc4cccc(F)c4)cc3)c12` [ilorasertib, Ilorasertib], which IC50 [1] is on record?
**A.** […]

**Q.** What about the IC50 [2] of the same compound?
**A.** 16 nM

**Q.** And the IC50 [3]?
**A.** 20 nM

**Q.** And the “AUC∞/dose” value ([5]; Arm III i.v. infusion 8 mg, day 1, N=3)?
**A.** 273 ± 38.5^b ng•h/mL/mg

**Q.** What about the AUCt/dose [5, 8] of the same compound?
**A.** 185 ± 42.9 ng·h/mL/mg

**Q.** And the Cmax/dose [5, 8]?
**A.** 29.3 ± 10.3 ng/mL/mg

**Q.** And the “AUC∞/dose” value ([5]; Arm III i.v. infusion 8 mg, day 15, N=3)?
**A.** 360 ± 249^b ng•h/mL/mg

**Q.** What about the AUCt/dose [5, 9] of the same compound?
**A.** 219 ± 71.5 ng·h/mL/mg

**Q.** And the Cmax/dose [5, 9]?
**A.** 30.8 ± 13.3 ng/mL/mg

**Q.** What about the AUCt/dose [5, 10] of the same compound?
**A.** 119 ng·h/mL/mg

**Q.** What about the “AUC∞/dose” value [5, 10] of the same compound?
**A.** 152 ng·h/mL/mg

**Q.** And the Cmax [5, 10]?
**A.** 0.37 µg/mL

**Q.** What about the Cmax/dose [5, 10] of the same compound?
**A.** 22.9 ng/mL/mg

**Q.** What about the AUCt/dose [5, 11] of the same compound?
**A.** 190 ng·h/mL/mg

**Q.** And the “AUC∞/dose” value [5, 11]?
**A.** 215 ng·h/mL/mg

**Q.** What about the Cmax [5, 11] of the same compound?
**A.** 0.74 µg/mL

**Q.** What about the Cmax/dose [5, 11] of the same compound?
**A.** 46 ng/mL/mg

**Q.** What about the AUCt/dose [5, 12] of the same compound?
**A.** 265 (390, 139) ng•h/mL/mg

**Q.** What about the “AUC∞/dose” value [5, 12] of the same compound?
**A.** 287 (424, 150) ng•h/mL/mg

**Q.** And the Cmax [5, 12]?
**A.** 1.31 (1.69, 0.94) μg/mL

**Q.** And the Cmax/dose [5, 12]?
**A.** 41.0 (52.8, 29.2) ng/mL/mg

**Q.** What about the AUCt/dose [5, 13] of the same compound?
**A.** 228 (304, 153) ng•h/mL/mg

**Q.** What about the “AUC∞/dose” value [5, 13] of the same compound?
**A.** 263 (358, 168) ng•h/mL/mg

**Q.** What about the Cmax [5, 13] of the same compound?
**A.** 1.37 (1.85, 0.88) μg/mL

**Q.** What about the Cmax/dose [5, 13] of the same compound?
**A.** 42.7 (57.8, 27.6) ng/mL/mg

**Q.** And the “AUC∞/dose” value ([5]; Arm III i.v. infusion all doses, day 1, N=6)?
**A.** 258 ± 104^d ng•h/mL/mg

**Q.** And the AUCt/dose [5, 14]?
**A.** 198 ± 93.7 ng·h/mL/mg

**Q.** And the Cmax/dose [5, 14]?
**A.** 31.8 ± 12.0 ng/mL/mg

**Q.** And the “AUC∞/dose” value ([5]; Arm III i.v. infusion all doses, day 15, N=6)?
**A.** 303 ± 180^d ng•h/mL/mg

**Q.** And the AUCt/dose [5, 15]?
**A.** 217 ± 68.0 ng·h/mL/mg

**Q.** What about the Cmax/dose [5, 15] of the same compound?
**A.** 36.4 ± 14.7 ng/mL/mg

**Q.** What about the AUC(0-inf) [5, 16] of the same compound?
**A.** 2190 ± 310 ng·h/mL

**Q.** And the clearance [5, 16]?
**A.** 61.8 mL/min

**Q.** And the half-life [5, 16]?
**A.** 8.5 ± 4.1 h

**Q.** And the AUC(0-t) ([5]; human, plasma, iv, 8 mg, Arm III i.v. infusion 8 mg, day 1, N=4)?
**A.** 1480 ± 340 ng·h/mL

**Q.** And the Cmax ([5]; human, plasma, iv, 8 mg, Arm III i.v. infusion 8 mg, day 1, N=4, read-out: Cmax)?
**A.** 0.23 ± 0.08 µg/mL

**Q.** What about the AUC(0-inf) [5, 17] of the same compound?
**A.** 2880 ± 1990 ng·h/mL

**Q.** And the clearance [5, 17]?
**A.** 60.2 mL/min

**Q.** And the AUC(0-t) ([5]; human, plasma, iv, 8 mg, Arm III i.v. infusion 8 mg, day 15, N=4)?
**A.** 1750 ± 570 ng·h/mL

**Q.** And the Cmax ([5]; human, plasma, iv, 8 mg, Arm III i.v. infusion 8 mg, day 15, N=4, read-out: Cmax)?
**A.** 0.25 ± 0.11 µg/mL

**Q.** What about the AUC(0-inf) [5, 18] of the same compound?
**A.** 2440 ng·h/mL

**Q.** And the AUC(0-t) [5, 18]?
**A.** 1910 ng·h/mL

**Q.** What about the clearance [5, 18] of the same compound?
**A.** 109 mL/min

**Q.** What about the AUC(0-inf) [5, 19] of the same compound?
**A.** 3450 ng·h/mL

**Q.** And the AUC(0-t) [5, 19]?
**A.** 3040 ng·h/mL

**Q.** And the clearance [5, 19]?
**A.** 77.3 mL/min

**Q.** And the half-life [5, 19]?
**A.** 9.6 h

**Q.** What about the AUC(0-inf) [5, 20] of the same compound?
**A.** 9180 ng·h/mL

**Q.** And the AUC(0-t) [5, 20]?
**A.** 8460 ng·h/mL

**Q.** What about the clearance [5, 20] of the same compound?
**A.** 75.2 mL/min

**Q.** And the half-life [5, 20]?
**A.** 9.3 h

**Q.** And the AUC(0-inf) [5, 21]?
**A.** 8410 ng·h/mL

**Q.** What about the AUC(0-t) [5, 21] of the same compound?
**A.** 7300 ng·h/mL

**Q.** And the clearance [5, 21]?
**A.** 73 mL/min

**Q.** And the clearance [5, 22]?
**A.** 74.2 mL/min

**Q.** What about the half-life [5, 22] of the same compound?
**A.** 9.1 ± 3.3 h

**Q.** What about the clearance [5, 23] of the same compound?
**A.** 67.3 mL/min

**Q.** And the half-life [5, 23]?
**A.** 12.1 ± 4.4 h

**Q.** What about the Tmax ([5]; human, plasma, iv, Arm III i.v. infusion 8 mg, day 1, N=4) of the same compound?
**A.** 2 ± 0.2 h

**Q.** What about the Tmax ([5]; human, plasma, iv, Arm III i.v. infusion all doses, day 1, N=7) of the same compound?
**A.** 2 ± 0.2 h

**Q.** And the IC50 [7]?
**A.** […]
